# In ChEMBL document CHEMBL3881525, “Analogs of dehydrophenylahistins and their therapeutic use” (2007):
# pEC50, pIC50: −log10 of the molar value. Activity calls are given as the source filed them. The rule behind the calls is not given here.
# What was measured:
# [1] = Cytotoxicity against human OVCAR3 cells assessed as reduction in cell viability measured after 48 hrs by resazurin dye-based fluorometric analysis relative to control; format: functional, OVCAR-3
# MES-SA [2] = test: Ratio of IC50 for taxol-sensitive human […] to IC50 for taxol-sensitive human […] pretreated with p-gp inhibitor cyclosporinA followed by compound addition; format: functional
# [3] = Cytotoxicity against human HT-29 cells assessed as reduction in cell viability measured after 48 hrs by resazurin dye-based fluorometric analysis relative to control; format: functional
# HL-60 = test: Ratio of IC50 for human mitoxantrone-sensitive HL60 cells to IC50 for human mitoxantrone-resistant HL60/MX2 cells; format: functional
# MDA-MB-231 = test: Ratio of IC50 for human CCD-27sk cells to IC50 for human MDA-MB-231 cells
# [4] = Antiproliferative activity against taxol-sensitive human MES-SA cells […]; format: functional, cell-based
# [5] = Cytotoxicity against human NCI-H292 cells assessed as reduction in cell viability measured after 48 hrs by resazurin dye-based fluorometric analysis; format: functional; conditions: NCI-H292, 48 h
# Aspergillus fumigatus [6] = test: Antifungal activity against Aspergillus fumigatus isolate 2 measured after 48 hrs by broth dilution method; format: functional; conditions: isolate 2, 48 h
# NCI-H292 = test: Ratio of IC50 for human CCD-27sk cells to IC50 for human NCI-H292 cells
# [7] = Cytotoxicity against human NCI-H292 cells assessed as reduction in cell viability measured after 48 hrs by resazurin dye-based fluorometric analysis relative to control; format: functional
# Aspergillus fumigatus [8] = test: Antifungal activity against Aspergillus fumigatus isolate 1 measured after 48 hrs by broth dilution method; format: functional; conditions: isolate 1, 48 h
# Candida albicans [9] = test: Antifungal activity against Candida albicans ATCC 10231 measured after 48 hrs by broth dilution method; format: functional; conditions: ATCC 10231, 48 h
# [10] = Cytotoxicity against human MDA-MB-231 cells assessed as reduction in cell viability measured after 48 hrs by resazurin dye-based fluorometric analysis; format: functional; conditions: MDA-MB-231, 48 h
# [11] = Cytotoxicity against human OVCAR3 cells assessed as reduction in cell viability measured after 48 hrs by resazurin dye-based fluorometric analysis; format: functional; conditions: OVCAR-3, 48 h
# [12] = Cytotoxicity against human PC3 cells assessed as reduction in cell viability measured after 48 hrs by resazurin dye-based fluorometric analysis relative to control; format: functional, PC-3; design: concentration or dose not given beside the values
# [13] = Cytotoxicity against human CCD-27Sk cells assessed as reduction in cell viability measured after 48 hrs by resazurin dye-based fluorometric analysis relative to control; conditions: read-out: INH
# MCF7 [14] = test: Potentiation of taxotere-induced antitumor activity against human MCF7 cells xenografted in nude mouse assessed as tumor growth inhibition at 7.5 mg/kg, ip qd for 4 days measured on day 7; format: functional, organism-based
# [15] = Antiproliferative activity against taxol-sensitive human MES-SA cells pretreated with p-gp inhibitor cyclosporinA followed by compound addition; format: functional, cell-based
# [16] = Antiproliferative activity against human mitoxantrone-resistant HL60/MX2 cells; format: functional, cell-based; conditions: HL-60
# [17] = Antiproliferative activity against taxol-resistant human MES-SA/Dx5 cells expressing MDR1 mRNA and P-gp; format: functional, cell-based
# PC-3 = test: Ratio of IC50 for human CCD-27sk cells to IC50 for human PC3 cells
# MES-SA/Dx5 = test: Ratio of IC50 for taxol-resistant human MES-SA/Dx5 cells expressing MDR1 mRNA and P-gp to IC50 for taxol-resistant human MES-SA/Dx5 cells expressing MDR1 mRNA and P-gp pretreated with p-gp inhibitor cyclosporinA followed by compound addition; format: functional
# Aspergillus fumigatus [18] = test: Fungicidal activity against Aspergillus fumigatus isolate 2 measured after 48 hrs by broth dilution method; format: functional; conditions: isolate 2, 48 h
# HUVEC = test: Induction of monolayer permeability in HUVEC assessed as colchicin transport at 2 uM measured up to 1 hr; format: functional, cell-based; conditions: Homo sapiens
# HT-29 = test: Ratio of IC50 for human CCD-27sk cells to IC50 for human HT-29 cells
# [19] = Cytotoxicity against human HT-29 cells assessed as reduction in cell viability measured after 48 hrs by resazurin dye-based fluorometric analysis; format: functional; conditions: Homo sapiens, HT-29, 48 h
# [20] = Antitumor activity against human HT-29 cells xenografted in nude mouse assessed as tumor growth inhibition at 30 mg/kg, ip administered every third day for 5 days in presence of CPT-11 relative to control; format: functional; conditions: HT-29, ip, 120 h, read-out: TGI
# Jurkat = test: Induction of apoptosis in human Jurkat cells assessed as caspase3 activation; format: functional, cell-based
# [21] = Cytotoxicity against mouse B16F10 cells assessed as reduction in cell viability measured after 48 hrs by resazurin dye-based fluorometric analysis; format: functional; conditions: B16-F10, 48 h
# [22] = Antiproliferative activity against taxol-resistant human MES-SA/Dx5 cells expressing MDR1 mRNA and P-gp pretreated with p-gp inhibitor cyclosporinA followed by compound addition; format: functional, cell-based
# [23] = Antiproliferative activity against human mitoxantrone-sensitive HL60 cells; format: functional, cell-based; conditions: HL-60
# [24] = Antifungal activity against Candida glabrata measured after 48 hrs by broth dilution method; format: functional; conditions: Nakaseomyces glabratus
# [25] = Cytotoxicity against human CCD-27Sk cells assessed as reduction in cell viability measured after 48 hrs by resazurin dye-based fluorometric analysis
# [26] = Cytotoxicity against human PC3 cells assessed as reduction in cell viability measured after 48 hrs by resazurin dye-based fluorometric analysis; format: functional; conditions: PC-3, 48 h
# [27] = Cytotoxicity against human Jurkat cells; format: functional, cell-based
# B16-F10 = test: Ratio of IC50 for human CCD-27sk cells to IC50 for mouse B16F10 cells
# [28] = Cytotoxicity against mouse B16F10 cells assessed as reduction in cell viability measured after 48 hrs by resazurin dye-based fluorometric analysis relative to control; format: functional, B16-F10
# Candida albicans [29] = test: Antifungal activity against Candida albicans 90028 measured after 48 hrs by broth dilution method; format: functional; conditions: Candida albicans, 90028, 48 h
# [30] = Drug level assessed as human hepatic cytochrome P450-mediated compound formation treated with (+/-)phenylahistin; format: ADME
# [31] = Antitumor activity against human MCF7 cells xenografted in nude mouse assessed as tumor growth inhibition at 7.5 mg/kg, ip qd for 5 days relative to control; format: functional; conditions: 120 h, read-out: TGI
# [32] = Antitumor activity against human A549 cells xenografted in nude mouse assessed as tumor growth inhibition at 7.5 mg/kg, ip qd for 5 days relative to control; format: functional; conditions: 120 h, read-out: TGI
# [33] = Antitumor activity against human A549 cells xenografted in nude mouse assessed as tumor growth inhibition at […], ip qd for 5 days relative to control; format: functional; conditions: 120 h, read-out: TGI
# [34] = Antitumor activity against human DU145 cells xenografted in nude mouse assessed as tumor growth inhibition at […], iv administered every third day measured on day 28 relative to control; format: functional; conditions: DU-145, iv, 672 h, read-out: TGI
# MES-SA [35] = test: Ratio of EC50 for taxol-resistant human MES-SA/DX5 cells expressing MDR1 mRNA and P-gp to EC50 for taxol-sensitive human MES-SA cells; format: functional
# [36] = Antitumor activity against human MDA-MB-231 cells xenografted in nude mouse assessed as tumor growth inhibition at 7.5 mg/kg, ip qd for 5 days relative to control; format: functional; conditions: MDA-MB-231, ip, 120 h, read-out: TGI
# HeLa [37] = test: Effect on cell cycle progression in human HeLa cells assessed as […] cells at 200 nM; format: functional, cell-based
# [38] = Antiproliferative activity against human taxol-sensitive MCF7 cells; format: functional, cell-based
# HeLa [39] = test: Effect on cell cycle progression in human HeLa cells assessed as reduction in 2N cells at 200 nM; format: functional, cell-based
# MES-SA [40] = test: Ratio of IC50 for taxol-sensitive human […] to IC50 for taxol-resistant human MES-SA/DX5 cells expressing MDR1 mRNA and P-gp; format: functional
# [41] = Antitumor activity against mouse B16F10 cells allografted in nude mouse assessed as mean growth inhibition at 10 mg/kg, iv qd for 5 days relative to control; format: functional, B16-F10; design: scale not given: the % may be the effect or the level left
# MCF7 [42] = test: Ratio of IC50 for human taxol-sensitive MCF7 cells to IC50 for human taxol-resistant MCF7/ADR cells; format: functional
# MCF7 [43] = test: Antimitotic activity in human MCF7 cells assessed as microtubule polymer at twice mitotic block IC50 measured after 20 hrs by immunofluorescence analysis relative to control; format: functional, cell-based
# MCF7 [44] = test: Antimitotic activity in human MCF7 cells assessed as mitotic index measured after 20 hrs by DAPI-staining based fluorescence microscopic analysis; format: functional, cell-based
# [45] = (§1) Antimitotic activity in human MCF7 cells assessed as bipolar cells with uncompressed chromosomes at mitotic block IC50 measured after 20 hrs by immunofluorescence analysis relative to control; format: functional
# MCF7 [46] = test: as §1; format: functional
# MCF7 [47] = test: Antimitotic activity in human MCF7 cells assessed as decrease in microtubule polymer formation measured after 20 hrs by immunofluorescence analysis relative to control; format: functional, cell-based
smiles,measurement,setting,value
CC(C)(C)c1[nH]cnc1/C=C1\NC(=O)C(Cc2ccccc2)NC1=O (centres undefined),inhibition (INH),[1],37%
same,Ratio IC50,MES-SA [2],1.3
same,Activity,[3],88%
same,Ratio IC50,HL-60,0.69
same,Ratio IC50,MDA-MB-231,>20 - 100
same,pEC50,[4],6.84 to 6.91
same,pEC50,[5],6.42
same,MIC,Aspergillus fumigatus [6],< 0.03 µg/mL
same,Ratio IC50,NCI-H292,>20 - 100
same,inhibition (INH),[7],65%
same,MIC,Aspergillus fumigatus [8],> 16 µg/mL
same,MIC,Candida albicans [9],> 32 µg/mL
same,pEC50,[10],6.41
same,pEC50,[11],< 4.70
same,Activity,[12],59.5%
same,cytotoxicity at 48 h,[13],45%
same,TGI,MCF7 [14],Active
same,pIC50,[15],7.56
same,pEC50,[16],6.76
same,pIC50,[17],6.08 to 6.16
same,Ratio IC50,PC-3,>20 - 100
same,Ratio IC50,MES-SA/Dx5,0.9
same,MFC,Aspergillus fumigatus [18],0.125 µg/mL
same,Activity,HUVEC,Active
same,Ratio IC50,HT-29,>20 - 100
same,pEC50,[19],6.38 to 6.59
same,inhibition in vivo at 30 mg/kg,[20],77.7%
same,Activity,Jurkat,Dose-dependent effect
same,pEC50,[21],6.13
same,pIC50,[22],6.21
same,pEC50,[23],6.59
same,MIC,[24],> 32 µg/mL
same,pEC50,[25],< 4.70
same,pEC50,[26],6.76
same,pIC50,[27],6.78
same,Ratio IC50,B16-F10,>20 - 100
same,inhibition (INH),[28],74%
same,MIC,Candida albicans [29],> 32 µg/mL
CC(C)(c1[nH]cnc1/C=C1\NC(=O)[C@H](Cc2ccccc2)NC1=O)C1CO1 (stereo in doubt),Drug metabolism,[30],Metabolite_Detected
CC(=O)O[C@@]12CO[C@@H]1C[C@H](O)[C@@]1(C)C(=O)[C@H](O)C3=C(C)[C@@H](OC(=O)[C@H](O)[C@@H](NC(=O)OC(C)(C)C)c4ccccc4)C[C@@](O)([C@@H](OC(=O)c4ccccc4)[C@H]21)C3(C)C [DOCETAXEL ANHYDROUS],inhibition in vivo at 7.5 mg/kg,[31],12 to 58%
same,inhibition in vivo at 7.5 mg/kg,[32],26%
same,inhibition in vivo at […],[33],26.1%
same,inhibition in vivo at […],[34],44.8%
same,TGI,MCF7 [14],Active
CC(=O)O[C@H]1C(=O)[C@@]2(C)[C@H]([C@H](OC(=O)c3ccccc3)[C@]3(O)C[C@H](OC(=O)[C@H](O)[C@@H](NC(=O)c4ccccc4)c4ccccc4)C(C)=C1C3(C)C)[C@]1(OC(C)=O)CO[C@@H]1C[C@@H]2O [PACLITAXEL],Ratio IC50,MES-SA [2],0.4 - 0.6
same,pEC50,[4],7.89 to 8.32
same,Ratio EC50,MES-SA [35],417
same,inhibition in vivo at 7.5 mg/kg,[36],53%
same,Activity,HeLa [37],Active
same,pIC50,[38],8.59
same,Activity,HeLa [39],Active
same,pEC50,[15],7.74 to 8.55
same,pIC50,[17],4.62 to 7.00
same,pEC50,[19],7.79
same,Ratio IC50,MES-SA [40],>8 - 3000
same,pIC50,[22],7.40 to 8.70
same,Activity,[41],35%
same,Ratio IC50,MCF7 [42],>38
COc1cc2c(c(OC)c1OC)-c1ccc(OC)c(=O)cc1[C@@H](NC(C)=O)CC2 [COLCHICINE],Activity,MCF7 [43],Active
same,inhibition,MCF7 [44],Dose-dependent effect
same,Activity,[45],50%
same,Activity,MCF7 [46],Active
same,Activity,MCF7 [47],Dose-dependent effect
same,MIC,[24],> 128 µg/mL
